Assay: RuAAC macrocyclisation of azide/terminal alkyne linear peptidomimetics to 1,5-triazole ([Cp*RuCl]4 0.1 eq, Ar-degassed), then Boc removal (TMSCl/MeOH GP4 or HCl/dioxane GP5)
Conditions: toluene (reflux), 1.25 mM, 111.0 °C, 18.0 h, 2 steps

Q: With `COC(=O)[C@@H]1CNC(=O)[C@H](Cc2ccccc2)n2nncc2CCCC(=O)NC[C@H](N)C(=O)N1` [Boc-Dap(5-hexynoyl)-Dap(N3-Phe)-OMe] as the molecule, how does the ring closure, yield over several steps (from C#CCCCC(=O)NC[C@H](NC(=O)OC(C)(C)C)C(=O)N[C@@H](CNC(=O)[C@H](Cc1ccccc1)N=[N+]=[N-])C(=O)OC, 16-membered ring) read?
A: 99%

Q: With `COC(=O)[C@@H]1CNC(=O)[C@H](Cc2ccccc2)n2nncc2CCCC(=O)Nc2ccc(cc2)C[C@H](N)C(=O)N1` [Boc-Phe(4-NH-5-hexynoyl)-Dap(N3-Phe)-OMe] as the molecule, how does the ring closure, yield over several steps (from C#CCCCC(=O)Nc1ccc(C[C@H](NC(=O)OC(C)(C)C)C(=O)N[C@@H](CNC(=O)[C@H](Cc2ccccc2)N=[N+]=[N-])C(=O)OC)cc1, 20-membered ring) read?
A: 15%

Q: With `COC(=O)[C@@H]1CCCCNC(=O)[C@H](Cc2ccccc2)n2nncc2CCCC(=O)NCCC[C@H](N)C(=O)N1` [Boc-Orn(5-hexynoyl)-Lys(N3-Phe)-OMe] as the molecule, how does the ring closure, yield over several steps (from C#CCCCC(=O)NCCC[C@H](NC(=O)OC(C)(C)C)C(=O)N[C@@H](CCCCNC(=O)[C@H](Cc1ccccc1)N=[N+]=[N-])C(=O)OC, 21-membered ring) read?
A: 86%

Q: For `COC(=O)[C@@H]1CCCCNC(=O)[C@H](Cc2ccccc2)n2nncc2CCC(=O)NCC[C@H](N)C(=O)N1` [Boc-Dab(4-pentynoyl)-Lys(N3-Phe)-OMe], which ring closure, yield over several steps (from C#CCCC(=O)NCC[C@H](NC(=O)OC(C)(C)C)C(=O)N[C@@H](CCCCNC(=O)[C@H](Cc1ccccc1)N=[N+]=[N-])C(=O)OC, 19-membered ring) is on record?
A: 90%

Q: For `COC(=O)[C@@H]1CCCn2nncc2CCCC(=O)NCC[C@H](N)C(=O)N1` [Boc-Dab(5-hexynoyl)-Orn(N3)-OMe], which ring closure, yield over several steps (from C#CCCCC(=O)NCC[C@H](NC(=O)OC(C)(C)C)C(=O)N[C@@H](CCCN=[N+]=[N-])C(=O)OC, 16-membered ring) is on record?
A: 99%

Q: For `COC(=O)[C@@H]1CCCCn2nncc2CNC(=O)NC[C@H](N)C(=O)N1` [Boc-Dap(CONH-propargyl)-Lys(N3)-OMe], which ring closure, yield over several steps (from C#CCNC(=O)NC[C@H](NC(=O)OC(C)(C)C)C(=O)N[C@@H](CCCCN=[N+]=[N-])C(=O)OC, 15-membered ring) is on record?
A: 73%

Q: With `COC(=O)[C@@H]1CCCCn2nncc2CNC(=O)NCCC[C@H](N)C(=O)N1` [Boc-Orn(CONH-propargyl)-Lys(N3)-OMe] as the molecule, how does the ring closure, yield over several steps (from C#CCNC(=O)NCCC[C@H](NC(=O)OC(C)(C)C)C(=O)N[C@@H](CCCCN=[N+]=[N-])C(=O)OC, 17-membered ring) read?
A: 99%

Q: Which ring closure, yield over several steps (from C#CCNC(=O)NC[C@H](NC(=O)OC(C)(C)C)C(=O)N[C@@H](CCCN=[N+]=[N-])C(=O)OC, 14-membered ring) does the source give for `COC(=O)[C@@H]1CCCn2nncc2CNC(=O)NC[C@H](N)C(=O)N1` [Boc-Dap(CONH-propargyl)-Orn(N3)-OMe] here?
A: 80%

Q: Which ring closure, yield over several steps (from C#CCCCC(=O)NC[C@H](NC(=O)OC(C)(C)C)C(=O)N[C@@H](CCCCNC(=O)[C@H](Cc1ccccc1)N=[N+]=[N-])C(=O)OC, 19-membered ring) does the source give for `COC(=O)[C@@H]1CCCCNC(=O)[C@H](Cc2ccccc2)n2nncc2CCCC(=O)NC[C@H](N)C(=O)N1` [Boc-Dap(5-hexynoyl)-Lys(N3-Phe)-OMe] here?
A: 99%

Q: Which ring closure, yield over several steps (from C#CCCCC(=O)NCC[C@H](NC(=O)OC(C)(C)C)C(=O)N[C@@H](Cc1ccc(N=[N+]=[N-])cc1)C(=O)OC, 18-membered ring) does the source give for `COC(=O)[C@@H]1Cc2ccc(cc2)-n2nncc2CCCC(=O)NCC[C@H](N)C(=O)N1` [Boc-Dab(5-hexynoyl)-Phe(4-N3)-OMe] here?
A: 97%

Q: With `COC(=O)[C@@H]1CCCCn2nncc2CNC(=O)NCC[C@H](N)C(=O)N1` [Boc-Dab(CONH-propargyl)-Lys(N3)-OMe] as the molecule, how does the ring closure, yield over several steps (from C#CCNC(=O)NCC[C@H](NC(=O)OC(C)(C)C)C(=O)N[C@@H](CCCCN=[N+]=[N-])C(=O)OC, 16-membered ring) read?
A: 99%

Q: Which ring closure, yield over several steps (from C#CCCC(=O)NC[C@H](NC(=O)OC(C)(C)C)C(=O)N[C@@H](CCCCNC(=O)[C@H](Cc1ccccc1)N=[N+]=[N-])C(=O)OC, 18-membered ring) does the source give for `COC(=O)[C@@H]1CCCCNC(=O)[C@H](Cc2ccccc2)n2nncc2CCC(=O)NC[C@H](N)C(=O)N1` [Boc-Dap(4-pentynoyl)-Lys(N3-Phe)-OMe] here?
A: 99%

Q: For `COC(=O)[C@@H]1CCCCn2nncc2CCC(=O)NCCC[C@H](N)C(=O)N1` [Boc-Orn(4-pentynoyl)-Lys(N3)-OMe], which ring closure, yield over several steps (from C#CCCC(=O)NCCC[C@H](NC(=O)OC(C)(C)C)C(=O)N[C@@H](CCCCN=[N+]=[N-])C(=O)OC, 17-membered ring) is on record?
A: 82%

Q: With `COC(=O)[C@@H]1CCCCn2nncc2CCC(=O)NCC[C@H](N)C(=O)N1` [Boc-Dab(4-pentynoyl)-Lys(N3)-OMe] as the molecule, how does the ring closure, yield over several steps (from C#CCCC(=O)NCC[C@H](NC(=O)OC(C)(C)C)C(=O)N[C@@H](CCCCN=[N+]=[N-])C(=O)OC, 16-membered ring) read?
A: 99%

Q: Which ring closure, yield over several steps (from C#CCCCC(=O)Nc1ccc(C[C@H](NC(=O)OC(C)(C)C)C(=O)N[C@@H](CCCCN=[N+]=[N-])C(=O)OC)cc1, 20-membered ring) does the source give for `COC(=O)[C@@H]1CCCCn2nncc2CCCC(=O)Nc2ccc(cc2)C[C@H](N)C(=O)N1` [Boc-Phe(4-NH-5-hexynoyl)-Lys(N3)-OMe] here?
A: 66%

Q: With `COC(=O)[C@@H]1CCCn2nncc2CCC(=O)NCCC[C@H](N)C(=O)N1` [Boc-Orn(4-pentynoyl)-Orn(N3)-OMe] as the molecule, how does the ring closure, yield over several steps (from C#CCCC(=O)NCCC[C@H](NC(=O)OC(C)(C)C)C(=O)N[C@@H](CCCN=[N+]=[N-])C(=O)OC, 16-membered ring) read?
A: 99%

Q: For `COC(=O)[C@@H]1Cc2ccc(cc2)-n2nncc2CCC(=O)NCC[C@H](N)C(=O)N1` [Boc-Dab(4-pentynoyl)-Phe(4-N3)-OMe], which ring closure, yield over several steps (from C#CCCC(=O)NCC[C@H](NC(=O)OC(C)(C)C)C(=O)N[C@@H](Cc1ccc(N=[N+]=[N-])cc1)C(=O)OC, 17-membered ring) is on record?
A: 83%

Q: With `COC(=O)[C@@H]1Cc2ccc(cc2)-n2nncc2CNC(=O)NCC[C@H](N)C(=O)N1` [Boc-Dab(CONH-propargyl)-Phe(4-N3)-OMe] as the molecule, how does the ring closure, yield over several steps (from C#CCNC(=O)NCC[C@H](NC(=O)OC(C)(C)C)C(=O)N[C@@H](Cc1ccc(N=[N+]=[N-])cc1)C(=O)OC, 17-membered ring) read?
A: 40%

Q: For `COC(=O)[C@@H]1Cc2ccc(cc2)-n2nncc2CCC(=O)NCCCC[C@H](N)C(=O)N1` [Boc-Lys(4-pentynoyl)-Phe(4-N3)-OMe], which ring closure, yield over several steps (from C#CCCC(=O)NCCCC[C@H](NC(=O)OC(C)(C)C)C(=O)N[C@@H](Cc1ccc(N=[N+]=[N-])cc1)C(=O)OC, 19-membered ring) is on record?
A: 68%

Q: With `COC(=O)[C@@H]1CCCn2nncc2CCCC(=O)Nc2ccc(cc2)C[C@H](N)C(=O)N1` [Boc-Phe(4-NH-5-hexynoyl)-Orn(N3)-OMe] as the molecule, how does the ring closure, yield over several steps (from C#CCCCC(=O)Nc1ccc(C[C@H](NC(=O)OC(C)(C)C)C(=O)N[C@@H](CCCN=[N+]=[N-])C(=O)OC)cc1, 19-membered ring) read?
A: 68%

Q: For `COC(=O)[C@@H]1CNC(=O)[C@H](Cc2ccccc2)n2nncc2CNC(=O)NCC[C@H](N)C(=O)N1` [Boc-Dab(CONH-propargyl)-Dap(N3-Phe)-OMe], which ring closure, yield over several steps (from C#CCNC(=O)NCC[C@H](NC(=O)OC(C)(C)C)C(=O)N[C@@H](CNC(=O)[C@H](Cc1ccccc1)N=[N+]=[N-])C(=O)OC, 16-membered ring) is on record?
A: 52%

Q: With `COC(=O)[C@@H]1CCCCNC(=O)[C@H](Cc2ccccc2)n2nncc2CCC(=O)Nc2ccc(cc2)C[C@H](N)C(=O)N1` [Boc-Phe(4-NH-4-pentynoyl)-Lys(N3-Phe)-OMe] as the molecule, how does the ring closure, yield over several steps (from C#CCCC(=O)Nc1ccc(C[C@H](NC(=O)OC(C)(C)C)C(=O)N[C@@H](CCCCNC(=O)[C@H](Cc2ccccc2)N=[N+]=[N-])C(=O)OC)cc1, 22-membered ring) read?
A: 57%

Q: For `COC(=O)[C@@H]1CCCn2nncc2CCC(=O)Nc2ccc(cc2)C[C@H](N)C(=O)N1` [Boc-Phe(4-NH-4-pentynoyl)-Orn(N3)-OMe], which ring closure, yield over several steps (from C#CCCC(=O)Nc1ccc(C[C@H](NC(=O)OC(C)(C)C)C(=O)N[C@@H](CCCN=[N+]=[N-])C(=O)OC)cc1, 18-membered ring) is on record?
A: 44%

Q: With `COC(=O)[C@@H]1CNC(=O)[C@H](Cc2ccccc2)n2nncc2CNC(=O)NC[C@H](N)C(=O)N1` [Boc-Dap(CONH-propargyl)-Dap(N3-Phe)-OMe] as the molecule, how does the ring closure, yield over several steps (from C#CCNC(=O)NC[C@H](NC(=O)OC(C)(C)C)C(=O)N[C@@H](CNC(=O)[C@H](Cc1ccccc1)N=[N+]=[N-])C(=O)OC, 15-membered ring) read?
A: 40%

Q: Which ring closure, yield over several steps (from C#CCCC(=O)NCCCC[C@H](NC(=O)OC(C)(C)C)C(=O)N[C@@H](CNC(=O)[C@H](Cc1ccccc1)N=[N+]=[N-])C(=O)OC, 18-membered ring) does the source give for `COC(=O)[C@@H]1CNC(=O)[C@H](Cc2ccccc2)n2nncc2CCC(=O)NCCCC[C@H](N)C(=O)N1` [Boc-Lys(4-pentynoyl)-Dap(N3-Phe)-OMe] here?
A: 90%

Q: With `COC(=O)[C@@H]1CCCCNC(=O)[C@H](Cc2ccccc2)n2nncc2CCCC(=O)NCCCC[C@H](N)C(=O)N1` [Boc-Lys(5-hexynoyl)-Lys(N3-Phe)-OMe] as the molecule, how does the ring closure, yield over several steps (from C#CCCCC(=O)NCCCC[C@H](NC(=O)OC(C)(C)C)C(=O)N[C@@H](CCCCNC(=O)[C@H](Cc1ccccc1)N=[N+]=[N-])C(=O)OC, 22-membered ring) read?
A: 60%

Reference: paper PMC4441267
